Reference: patent US8722717B2, “3-triazolylphenyl-substituted sulphide derivatives as acaricides and insecticides” (Bayer CropScience AG, priority 2009, dated 2014)

What was measured:
[1] = log P by HPLC/LC-MS on reversed-phase C18, formic acid method [b]; assay type: physicochemical; conditions: reversed-phase C18 HPLC column; pH 2.7, 0.1% aqueous formic acid and acetonitrile; read-out: logP (HCOOH)
Method: (§1) The log P values reported in the table above and in the preparation examples were determined in accordance with EEC Directive 79/831 Annex V.A8 by HPLC (High Performance Liquid Chromatography) on reversed-phase columns (C 18), with the following methods: ^[b] The determination is made by LC-MS in the acid range at pH 2.7 with 0.1% aqueous formic acid and acetonitrile (containing 0.1% formic acid) as eluents; linear gradient from 10% acetonitrile to 95% acetonitrile. Calibration took place with unbranched alkan-2-ones (having 3 to 16 carbon atoms) of known log P values (log P values determined from the retention times by linear interpolation between two successive alkanones).

[2] = tested on: greenhouse red spidermite (Tetranychus urticae); assay: Tetranychus test; OP resistant (TETRUR spray treatment), Example 5; assay type: in vivo; conditions: foliar, 144 h, spray on bean leaf discs, after 6 days, read-out: effect (100% means that all of the mites have been killed); for pest or weed control at 500 g/ha: application rate 500 g/ha; for pest or weed control at 100 g/ha: application rate 100 g/ha
Method: (§2) Solvents: 78.0 parts by weight of acetone • • 1.5 parts by weight of dimethylformamide Emulsifier: 0.5 part by weight of alkylaryl polyglycol ether An appropriate preparation of active compound is prepared by mixing 1 part by weight of active compound with the stated amounts of solvent and emulsifier and diluting the concentrate with emulsifier-containing water to the desired concentration. Leaf discs of bean (Phaseolus vulgaris) infested by all stages of the greenhouse red spidermite (Tetranychus urticae) are sprayed with a preparation of active compound at the desired concentration. After 6 days, the effect in % is determined. Here, 100% means that all of the mites have been killed; 0% means that no mites have been killed.

Boophilus microplus [3] = assay: Boophilus microplus test (BOOPMI injection); assay type: in vivo; conditions: injection into the abdomen, 20 μg/animal, after 7 days
Method: Solvent: Dimethyl Sulphoxide An appropriate preparation of active compound is prepared by mixing 10 mg of active compound with 0.5 ml of solvent and diluting the concentrate with solvent to the desired concentration. The solution of active compound is injected into the abdomen (Boophilus microplus) and the animals are transferred into dishes and kept in a controlled atmosphere. The activity is assessed on the basis of deposition of fertile eggs. After 7 days, the effect in % is determined. Here, 100% means that none of the ticks has laid fertile eggs.

[4] = tested on: green peach aphid (Myzus persicae); assay: Myzus test (MYZUPE spray treatment); assay type: in vivo; conditions: spray on Chinese cabbage leaf discs, application rate 500 g/ha, after 6 days
Method: as §2, with “Solvent: 78” for “Solvents: 78.0”, “Chinese cabbage (Brassica pekinensis)” for “bean (Phaseolus vulgaris)”, “green peach aphid (Myzus persicae)” for “greenhouse red spidermite (Tetranychus urticae)”, “aphids” for “mites”

[5] = log P by HPLC on reversed-phase C18, phosphoric acid method [a]; assay type: physicochemical; conditions: reversed-phase C18 HPLC column; pH 2.3, 0.1% aqueous phosphoric acid and acetonitrile; read-out: logP (H3PO4)
Method: as §1, with “^[a]” for “^[b]”, “made” for “made by LC-MS”, “2.3” for “2.7”, “phosphoric” for “formic”, “acetonitrile” for “acetonitrile (containing 0.1% formic acid)”

[6] = tested on: larvae of the mustard beetle (Phaedon cochleariae); assay: Phaedon test (PHAECO spray treatment); assay type: in vivo; conditions: foliar, spray on Chinese cabbage leaf discs, application rate 500 g/ha, read-out: effect (100% means that all of the beetle larvae have been killed)
Method: Solvents: 78.0 parts by weight of acetone • • 1.5 parts by weight of dimethylformamide Emulsifier: 0.5 part by weight of alkylaryl polyglycol ether An appropriate preparation of active compound is prepared by mixing 1 part by weight of active compound with the stated amounts of solvent and emulsifier and diluting the concentrate with emulsifier-containing water to the desired concentration. Leaf discs of Chinese cabbage (Brassica pekinensis) are sprayed with a preparation of active compound at the desired concentration and, after they have dried, are populated with larvae of the mustard beetle (Phaedon cochleariae). After the desired time, the effect in % is determined. Here, 100% means that all of the beetle larvae have been killed; 0% means that no beetle larvae have been killed.

Meloidogyne incognita = Meloidogyne incognita test (MELGIN); assay type: in vivo; conditions: application rate 20 ppm, lettuce in sand, after 14 days
Method: Solvents: 80.0 parts by weight of acetone An appropriate preparation of active compound is prepared by mixing 1 part by weight of active compound with the stated amounts of solvent and emulsifier and diluting the concentrate with water to the desired concentration. Pots are filled with sand, solution of active compound, meloidogyne incognita egg/larvae suspension, and lettuce seeds. The lettuce seeds germinate and the plants develop. On the roots, the galls develop. After 14 days, the nematicidal effect is determined from the gall formation, in %. Here, 100% means that no galls were found; 0% means that the number of galls on the treated plants corresponds to that for the untreated control.

[7] = tested on: greenhouse red spidermite (Tetranychus urticae); assay: Tetranychus test; OP resistant (TETRUR spray treatment), Example 7, comparison with prior art; assay type: in vivo; conditions: 6 d
Method: as §2, with “the desired time,” for “6 days,”

Boophilus microplus [8] = assay: Boophilus microplus (dip); assay type: in vivo; conditions: application rate 100 ppm, after 7 days
Method: Solvent: Dimethyl Sulphoxide A quantity of 10 mg of active compound is dissolved in 0.5 ml of dimethyl sulphoxide. To prepare a suitable formulation, the active compound solution is diluted with water to the particular desired concentration. This active compound preparation is pipetted into tubes. A quantity of 8-10 ticks is transferred into a further tube with holes. The tube is immersed in the active compound preparation, with all of the ticks being fully wetted. After the liquid has run off, the ticks are transferred to filter discs in plastic dishes and are kept in a conditioned room. The effect is monitored after 7 days on the basis of deposition of fertile eggs. Eggs whose fertility is not externally visible are stored in glass tubes until the larvae hatch, in a controlled-climate box. An activity of 100% means that none of the ticks has laid fertile eggs.

Row | Compound | chromatographic logP [1] | pest or weed control at 500 g/ha [2] [%] | pest or weed control at 100 g/ha [2] [%] | pest or weed control at 500 g/ha [6] [%] | further results
1 | Cc1ccc(-n2cnc(C(F)(F)F)n2)c(C)c1 [IV-A-1, 3-(Trifluoromethyl)-1-(2,4-dimethylphenyl)-1H-1,2,4-triazole] | 3.19 | – | – | – | –
2 | Cc1cc(C)c([S+]([O-])CC(F)(F)C(F)F)cc1-n1cnc(C(F)(F)F)n1 (stereo not drawn) [I-A-5] | – | 100 | – | – | activity (100% means that none of the ticks has laid fertile eggs) (Boophilus microplus [3]): 100%; activity (100% means that all of the aphids have been killed) [4]: 90%; chromatographic logP [5]: 2.88
3 | Cc1cc(Cl)c(-n2cnc(C(F)(F)F)n2)cc1SCC#N [I-A-12] | 3.12 | 100 | – | – | –
4 | Cc1cc(Cl)c(-n2cnc(C(F)(F)F)n2)cc1[S+]([O-])CC#N (stereo not drawn) [I-A-11] | 2.17 | 100 | – | – | nematicidal effect from gall formation (100% means that no galls were found) (Meloidogyne incognita): 90%
5 | Cc1cc(C)c([S+]([O-])CC(F)F)cc1-n1cnc(C(F)(F)F)n1 (stereo not drawn) [I-A-2, 3-(trifluoromethyl)-1-{2,4-dimethyl-5-[(2,2-difluoroethyl)sulphinyl]phenyl}-1H-1,2,4-triazole] | 2.41 | – | 100 | – | activity (100% means that none of the ticks has laid fertile eggs) (Boophilus microplus [3]): 100%
6 | Cc1cc(C)c([S+]([O-])CC#N)cc1-n1cnc(C(F)(F)F)n1 (stereo not drawn) [I-A-8] | 2.07 | 100 | – | – | –
7 | Cc1cc(Cl)c(-n2cnc(C(F)(F)F)n2)cc1[S+]([O-])CC(F)(F)C(F)F (stereo not drawn) [I-A-23] | 3.01 | 100 | – | 100 | –
8 | Cc1cc(Cl)c(-n2cnc(C(F)(F)F)n2)cc1SCC(F)F [I-A-16] | 3.75 | – | 100 | 100 | –
9 | Cc1cc(C)c([S+]([O-])CC(F)(F)C(F)(F)F)cc1-n1cnc(C(F)(F)F)n1 (stereo not drawn) [I-A-10] | – | 100 | – | – | chromatographic logP [5]: 3.29
10 | Cc1cc(C)c(-n2cnc(C(F)(F)F)n2)cc1SCC(F)(F)F [VI -297, reference compound] | – | – | – | – | % effect after application ([7]; 4 g/ha): 0%; % effect after application ([7]; 20 g/ha): 70%
11 | Cc1cc(F)c(-n2cnc(C(F)(F)F)n2)cc1SCC#N [I-A-13] | 2.93 | 100 | – | – | –
12 | Cc1cc(F)c(-n2cnc(C(F)(F)F)n2)cc1[S+]([O-])CC(F)(F)C(F)F (stereo not drawn) [I-A-18] | 2.79 | – | 100 | 100 | –
13 | Cc1cc(F)c(-n2cnc(C(F)(F)F)n2)cc1[S+]([O-])CC#N (stereo not drawn) [I-A-15] | 1.99 | 100 | – | – | –
14 | Cc1cc(F)c(-n2cnc(C(F)(F)F)n2)cc1SCC(F)F [I-A-6] | 3.57 | – | 100 | 100 | –
15 | Cc1cc(C)c(-n2cnc(C(F)(F)F)n2)cc1SCC(F)(F)C(F)(F)F [I-A-4] | – | 100 | 100 | – | activity (100% means that none of the ticks has laid fertile eggs) (Boophilus microplus [3]): 100%; activity (100% means that none of the ticks has laid fertile eggs) (Boophilus microplus [8]): 90%; chromatographic logP [5]: 4.49
16 | Cc1cc(Cl)c(-n2cnc(C(F)(F)F)n2)cc1[S+]([O-])CC(F)F (stereo not drawn) [I-A-21] | 2.54 | 100 | – | – | –
17 | Cc1cc(C)c(-n2cnc(C(F)(F)F)n2)cc1SCC(F)(F)C(F)F [I-A-3] | – | 100 | – | – | activity (100% means that none of the ticks has laid fertile eggs) (Boophilus microplus [3]): 100%; activity (100% means that none of the ticks has laid fertile eggs) (Boophilus microplus [8]): 90%; chromatographic logP [5]: 3.98
18 | Cc1cc(F)c(-n2cnc(C(F)(F)F)n2)cc1[S+]([O-])CC(F)F (stereo not drawn) [I-A-19] | 2.33 | – | 100 | 100 | –
19 | Cc1cc(C)c([S+]([O-])CCC(F)(F)F)cc1-n1cnc(C(F)(F)F)n1 (stereo not drawn) [I-A-7] | 2.86 | – | 90 | – | –

Further lines, with some results ahead:

Row | chromatographic logP [1] | Compound | pest or weed control at 500 g/ha [2] [%] | pest or weed control at 100 g/ha [2] [%] | pest or weed control at 500 g/ha [6] [%] | further results
20 | 4.06 | Cc1cc(Cl)c(-n2cnc(C(F)(F)F)n2)cc1SCC(F)(F)C(F)F [I-A-17] | – | 100 | 100 | –
21 | 3.87 | Cc1cc(F)c(-n2cnc(C(F)(F)F)n2)cc1SCC(F)(F)C(F)F [I-A-24] | – | 100 | 100 | –
22 | 3.22 | Cc1cc(F)c(-n2cnc(C(F)(F)F)n2)cc1[S+]([O-])CC(F)(F)C(F)(F)F (stereo not drawn) [I-A-25] | – | 100 | 100 | –
23 | 4.32 | Cc1cc(C)c(-n2cnc(C(F)(F)F)n2)cc1SCCC(F)(F)F [I-A-20] | – | 100 | – | activity (100% means that all of the aphids have been killed) [4]: 100%
24 | 3.74 | Cc1cc(C)c(-n2cnc(C(F)(F)F)n2)cc1SCC(F)F [I-A-1, 3-(trifluoromethyl)-1-{2,4-dimethyl-5-[(2,2-difluoroethyl)sulphanyl]phenyl}-1H-1,2,4-triazole] | – | 100 | – | activity (100% means that none of the ticks has laid fertile eggs) (Boophilus microplus [3]): 100%
25 | 3.4 | Cc1cc(Cl)c(-n2cnc(C(F)(F)F)n2)cc1[S+]([O-])CC(F)(F)C(F)(F)F (stereo not drawn) [I-A-14] | 100 | – | 100 | –
26 | 4.4 | Cc1cc(F)c(-n2cnc(C(F)(F)F)n2)cc1SCC(F)(F)C(F)(F)F [I-A-22] | – | 100 | – | –
27 | 3.08 | Cc1cc(C)c(-n2cnc(C(F)(F)F)n2)cc1SCC#N [I-A-9] | – | 100 | – | –
28 | 4.57 | Cc1cc(Cl)c(-n2cnc(C(F)(F)F)n2)cc1SCC(F)(F)C(F)(F)F [I-A-26] | – | 90 | – | –
